Experimental data: paper PMC9549944, “In vitro and in silico assessment of new beta amino ketones with antiplasmodial activity” (Revista da Sociedade Brasileira de Medicina Tropical, 2022)
Where two headings read alike, the source gives them in different places.

Test system: P. falciparum strain W2 (chloroquine-resistant)
Assay: In vitro antiplasmodial activity, SYBR Green-based assay
Format: cell-based
Conditions: for SI (selectivity index): ratio LD50 (WI-26VA4) / IC50 (P. falciparum W2)
Procedure: Ring-stage parasites were equally distributed in 96-well microculture plates. Serial dilutions of the compounds were performed ranging from 0.01 to 100 μg/mL. […] A fluorometer (Fluoroskan Ascent, Thermo Laboratories) with excitation at 485 nm and emission at […] was used to determine the viability of the parasites. All experiments were performed in triplicates.
Selectivity index (SI) is the ratio between the values of LD50 and IC50 […] of each compound tested.
IC50 and LD50 were determined using the equation of the curve obtained by plotting parasitemia reduction (%) or cellular death (%) vs. the concentration of the compound (log scale) using the GraphPad Prism software (version 5.0 for Windows, San Diego, California, USA). Due to the non-normality of the data distribution, the comparison of IC50 and LD50 between morpholine and piperidine was analyzed using the nonparametric Mann-Whitney U test. Statistical significance was defined at 5% (p<0.05).

[1] = Plasmodium falciparum, W2, read-out: IC50 ± SD (drug concentration that reduced parasite viability in 50%), P. falciparum W2 chloroquine-resistant, SYBR, mean and SD of triplicate experiments
[2] = read-out: IC50 ± SD (drug concentration that reduced parasite viability in 50%), P. falciparum W2 chloroquine-resistant, SYBR, mean and SD of triplicate experiments

| SMILES | IC50 [1] | IC50 [2] | IC50 (Plasmodium falciparum, W2, read-out: IC50 ± SD (drug concentration that reduced parasite viability in 50%)) | SI (selectivity index) |
| --- | --- | --- | --- | --- |
| CCN(CC)CCCC(C)Nc1ccnc2cc(Cl)ccc12 (stereo not drawn) [Chloroquine (CQ), Chloroquine, reference compound] |  |  | 920 ± 10 nM |  |
| CC(CN1CCCCC1)C(=O)c1ccccc1 (stereo not drawn) [Compound 4, 2-methyl-1-phenyl-3-(piperidein-1-yl)propan-1-one] | > 1000 nM | 780 ± 90 nM |  |  |
| CCCCCCC(CN1CCCCC1)C(C)=O (stereo not drawn) [Compound 8, 3[(piperdin-1-yl)methyl]nonan-2-one] | 48000 ± 18500 nM |  |  | 0.81 |

Now from value to molecule, other results behind:

| IC50 [1] | IC50 [2] | SMILES | IC50 (Plasmodium falciparum, W2, read-out: IC50 ± SD (drug concentration that reduced parasite viability in 50%)) | SI (selectivity index) |
| --- | --- | --- | --- | --- |
| < 980 nM | 980 ± 10 nM | O=C(CCN1CCOCC1)c1ccccc1 [Compound 1, 3-(morpholin-4-yl)-1-phenylpropan-1-one] |  |  |
| < 3590 nM | 3590 ± 80 nM | O=C(CCN1CCCCC1)c1ccccc1 [Compound 2, 1-phenyl-3-(piperidin-1-yl)propan-1-one] |  | 9.46 |
| 32530 ± 20 nM |  | CC(CN1CCOCC1)C(=O)c1ccccc1 (stereo not drawn) [Compound 3, 2-methyl-3-(morpholin-4-yl)-1-phenylpropan-1-one] |  | > 3.07 |
